Test results published in PMC7203973 (ACS Omega, 2020).

Assays:
[1] = cited from earlier work
[2] = cited from earlier work; remark: listed apart in the source
[3] = cited from earlier work; remark: listed apart in the source
Permeability by PAMPA = format: in vitro ADME
[4] = marketed drugs; cited from earlier work
[5] = cited from earlier work; remark: listed apart in the source

Compound: NS(=O)(=O)c1cc(C2(O)NC(=O)c3ccccc32)ccc1Cl (stereo not drawn) [chlorthalidone]
- blood-to-plasma ratio (KRBC/Plasma), reported in the literature [1]: 20.0 ± 0.3

Compound: CO[C@H]1C[C@@H]2CC[C@@H](C)[C@@](O)(O2)C(=O)C(=O)N2CCCC[C@H]2C(=O)O[C@H]([C@H](C)C[C@@H]2CC[C@@H](O)[C@H](OC)C2)CC(=O)[C@H](C)/C=C(\C)[C@@H](O)[C@@H](OC)C(=O)[C@H](C)C[C@H](C)/C=C/C=C/C=C/1C [rapamycin]
- blood-to-plasma ratio (KRBC/Plasma), reported in the literature [1]: 3.5 ± 0.5

Compound: C[C@]12CC[C@H]3[C@@H](CCC4=CC(=O)CC[C@@]43C)[C@@H]1CC[C@@H]2O [testosterone]
- partition coefficient (log P), reported value [2]: around 3.28
- permeability (log Pe), reported results [3]: −3.5 to −4.9
- Papp at 5 h, 25 μM (Permeability by PAMPA): 102 ×10⁻⁶ cm/s

Compound: CCN(CC)CCOC(=O)c1ccc(N)cc1 [procaine]
- stability in rat plasma versus human plasma [4]: vice verse

Compound: CCN(CC)CCCC(C)Nc1ccnc2cc(Cl)ccc12 (stereo not drawn) [chloroquine]
- blood-to-plasma ratio (KRBC/Plasma), reported in the literature [1]: 8.5 ± 0.1

Compound: CO[C@H]1/C=C/O[C@@]2(C)Oc3c(C)c(O)c4c(O)c(c(/C=N/N5CCN(C)CC5)c(O)c4c3C2=O)NC(=O)/C(C)=C\C=C\[C@H](C)[C@H](O)[C@@H](C)[C@@H](O)[C@@H](C)[C@H](OC(C)=O)[C@@H]1C [rifampicin]
- plasma protein binding, reported results [5]: 82–92%

Compound: CCOC(=O)[C@H](CCc1ccccc1)N[C@@H](C)C(=O)N1CCC[C@H]1C(=O)O [enalapril]
- stability in rat plasma versus human plasma [4]: very less stable in rat plasma but more stable in human plasma
